Assay results taken from patent publication US20050059585A1, “Methionine aminopeptidase-2 inhibitors and methods of use thereof” (Praecis Pharmaceuticals Inc., priority 2000, published 2005).

Tests used:
Format in all cases: cell-based
[1] = test system: D10; test: Inhibition of GC derived B cell lymphoma lines in culture; conditions: D10, FL
[2] = test system: Pfeiffer; test: as above
[3] = test system: H2; test: as above
[4] = test system: SU-DHL-16; test: as above; conditions: Homo sapiens, SU-DHL-16, 120 h, read-out: Growth Inhibition Relative to Vehicle Control, GI50%
[5] = test system: COLO 205; test: tumor cell line panel, SRB growth assay; conditions: Homo sapiens; COLO 205, Colon, 48 hours
Procedure: (§1) The compound of example 5 was also evaluated against a panel of cancer cell lines (Alley, M.C. et al. […] Cancer Research 48: 589-601; Grever, M. R., et al. (1992) Seminars in Oncology, Vol. 19, No. 6, pp 622-638; Boyd, M. R., and Paull, K. D. (1995) Drug Development Research 34: 91-109). The human tumor cell lines of the cancer screening panel were grown in RPMI 1640 medium containing 5% fetal bovine serum and 2 mM L-glutamine. Cells were inoculated into 96 well microtiter plates in 100 μL at plating densities ranging from 5,000 to 40,000 cells/well depending on the doubling time of individual cell lines. After cell inoculation, the microtiter plates were incubated at 37° C., 5 % CO2, 95 % air and 100 % relative humidity for 24 hours prior to addition of experimental drugs.
(§2) After the 24 hour incubation period, two plates of each cell line were fixed in situ with TCA, to represent a measurement of the cell population for each cell line at the time of drug addition (Tz). Experimental drugs were solubilized in dimethyl sulfoxide at 400-fold the desired final maximum test concentration and stored frozen prior to use. At the time of drug addition, an aliquot of frozen concentrate was thawed and diluted to twice the desired final maximum test concentration with complete medium containing 50 μg/ml gentamicin. Additional four, 10-fold or ½ log serial dilutions were made to provide a total of five drug concentrations plus control. Aliquots of 100 μl of these different drug dilutions were added to the appropriate microtiter wells already containing 100 μl of medium, resulting in the required final drug concentrations.
(§3) Following drug addition, the plates were incubated for an additional 48 hours at 37° C., 5 % CO2, 95 % air, and 100 % relative humidity. For adherent cells, the assay was terminated by the addition of cold TCA. Cells were fixed in situ by the gentle addition of 50 μl of cold 50 % (w/v) TCA (final concentration, 10% TCA) and incubated for 60 minutes at 4° C. The supernatant was discarded, and the plates were washed five times with tap water and air dried. Sulforhodamine B (SRB) solution (100 μl) at 0.4 % (w/v) in 1 % acetic acid were added to each well, and plates were incubated for 10 minutes at room temperature. After staining, unbound dye was removed by washing five times with 1 % acetic acid and the plates were air dried. Bound stain was subsequently solubilized with 10 mM trizma base, and the absorbance was read on an automated plate reader at a wavelength of 515 nm. For suspension of the cells, the methodology used was the same except that the assay was terminated by fixing settled cells at the bottom of the wells by gently adding 50 μl of 80 % TCA (final concentration, 16% TCA). Using the seven absorbance measurements [time zero, (Tz), control growth, (C), and test growth in the presence of drug at the five concentration levels (Ti)], the percentage growth was calculated at each of the drug concentrations levels.
(§4) Percentage growth inhibition was calculated as: [(Ti−Tz)/(C−Tz)]×100 for concentrations for which Ti>/=Tz [(Ti−Tz)/Tz]×100 for concentrations for which Ti<Tz.
(§5) Growth inhibition of 50% (GI50) was calculated from [(Ti−Tz)/(C−Tz)]×100=50, which is the drug concentration resulting in a 50% reduction in the net protein increase (as measured by SRB staining) in control cells during the drug incubation. The G150 was calculated for each of the cell lines if the level of activity is reached; however, if the effect was not reached or is exceeded, the value for that parameter is expressed as greater or less than the maximum (10^−4 M) or minimum (10^−8 M) concentration tested.

[6] = test system: SK-OV-3; test: tumor cell line panel, SRB growth assay; conditions: Homo sapiens; SK-OV-3, Ovarian, 48 hours
Procedure: as §1, §2, §3, §4, §5

[7] = test system: HT29; test: tumor cell line panel, SRB growth assay; conditions: Homo sapiens, HT-29; HT29, Colon, 48 hours
Procedure: as §1, §2, §3, §4, §5

[8] = test system: NCI-H460; test: tumor cell line panel, SRB growth assay; conditions: Homo sapiens; NCI-H460, Non-Small Cell Lung, 48 hours
Procedure: as §1, §2, §3, §4, §5

[9] = test system: OVCAR-8; test: tumor cell line panel, SRB growth assay; conditions: Homo sapiens; OVCAR-8, Ovarian, 48 hours
Procedure: as §1, §2, §3, §4, §5

[10] = test system: SN12C; test: tumor cell line panel, SRB growth assay; conditions: Homo sapiens, Renal, 48 hours
Procedure: as §1, §2, §3, §4, §5

[11] = test system: HS 578T; test: tumor cell line panel, SRB growth assay; conditions: Homo sapiens, Breast, 48 hours
Procedure: as §1, §2, §3, §4, §5

[12] = test system: K-562; test: tumor cell line panel, SRB growth assay; conditions: Homo sapiens, K562; K-562, Leukemia, 48 hours
Procedure: as §1, §2, §3, §4, §5

[13] = test system: KM12; test: tumor cell line panel, SRB growth assay; conditions: Homo sapiens; KM12, Colon, 48 hours
Procedure: as §1, §2, §3, §4, §5

[14] = test system: Ramos; test: Inhibition of GC derived B cell lymphoma lines in culture; conditions: Burkitt's lymphoma cell line, 0.01-100 nM
[15] = test system: bovine aortic endothelial cell; test: bovine aortic endothelial cell growth assay (Baec assay); conditions: Bos taurus, BAEC; read-out: IC50 (pM), Baec Assay
Procedure: The angiogenesis inhibitor compounds of the invention were tested for their ability to modulate human endothelial cell growth and for their ability to modulate the activity of MetAP2. The MetAP2 enzyme assay was performed essentially as described in Turk, B. et al. (1999) Chem. & Bio. 6: 823-833, the entire contents of which are incorporated herein by reference. The bovine aortic endothelial cell growth assay (Baec assay) was performed essentially as described in Turk, B. et al. (supra), the entire contents of which are incorporated herein by reference.

[16] = test system: ST486; test: Inhibition of GC derived B cell lymphoma lines in culture

CO[C@@H]1[C@H](OC(=O)N[C@@H](C(N)=O)C(C)C)CC[C@]2(CO2)[C@H]1[C@@]1(C)O[C@@H]1CC=C(C)C [Example 5, (1-Carbamoyl-2-methyl-propyl)-carbamic acid-(3R, 4S, 5S, 6R )-5-methoxy-4-[(2R, 3R)-2-methyl-3-(3-methyl-but-2-enyl)-oxiranyl]-1-oxa-spiro[2.5]oct-6-yl ester]
GI50 ([1]; B-cell, estimated, read-out: Growth Inhibition Relative to Vehicle Control, GI50%): 0.42 nM
Growth Inhibition Relative to Vehicle Control, Maximum Inhibition ([1]; 0.01-100 nM, five or six days): 59%
Growth Inhibition Relative to Vehicle Control, Maximum Inhibition ([2]; DLBCL, 0.01-100 nM, five or six days): 54%
GI50 ([2]; Homo sapiens, read-out: Growth Inhibition Relative to Vehicle Control, GI50%): 0.27 nM
GI50 ([3]; B-cell, read-out: Growth Inhibition Relative to Vehicle Control, GI50%): 0.16 nM
Growth Inhibition Relative to Vehicle Control, Maximum Inhibition ([3]; H2, FL, 0.01-100 nM, five or six days): 59%
GI50 [4]: 1.9 nM
GI50 [5]: < 10 nM
GI50 [6]: 7370 nM
GI50 [7]: 16100 nM
GI50 [8]: < 10 nM
GI50 [9]: 18400 nM
GI50 [10]: < 10 nM
GI50 [11]: 1150 nM
GI50 [12]: 64400 nM
GI50 [13]: < 10 nM
inhibition of proliferation (in words) [14]: inhibited the proliferation of all lymphoma lines tested except for the Ramos line
IC50 [15]: 46 pM
GI50 ([16]; Homo sapiens, ST486, read-out: Growth Inhibition Relative to Vehicle Control, GI50%): 0.22 nM
Growth Inhibition Relative to Vehicle Control, Maximum Inhibition ([16]; ST486, BL, 0.01-100 nM, five or six days): 53%
